According to paper PMC3773979 (Biochemistry, 2010):
Where a chain is given by its changes, count along the chain named. Like-named read-outs stand apart in the source and are kept apart here. Marks after values point to notes of the source that are not given here.

What was measured:
S. pneumoniae DHFR [1] = target: T1, S. pneumoniae DHFR (Streptococcus pneumoniae serotype 4, UniProt Q54801, A78V/I100L/K60Q/V77A); conditions: pH 7.0, MTEN buffer, 25 °C
T1 sequence (Q54801 1-168 K60Q/V77A/A78V/I100L): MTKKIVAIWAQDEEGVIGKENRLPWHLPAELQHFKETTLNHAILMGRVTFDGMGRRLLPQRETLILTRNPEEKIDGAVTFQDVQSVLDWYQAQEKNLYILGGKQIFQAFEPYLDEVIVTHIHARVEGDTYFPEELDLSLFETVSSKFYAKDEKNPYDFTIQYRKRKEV

E. coli DHFR [2] = conditions: cited from earlier work
Sp9 mutant DHFR [3] = target: Sp9 mutant DHFR (Streptococcus pneumoniae serotype 4, UniProt Q54801, A149T/E133A/H26Y/I100V/Q81H/Q91S); conditions: pH 7.0, MTEN buffer, 25 °C
S. pneumoniae DHFR [4] = target: T1, S. pneumoniae DHFR; assay: Equilibrium fluorescence quenching titration, spDHFR; type: binding; conditions: read-out: Kd (NADPH), pH 7.0, MTEN buffer
S. pneumoniae DHFR [5] = target: T1, S. pneumoniae DHFR; assay: Stopped-flow binding kinetics; conditions: MTEN buffer, 25 °C, relaxation method
Sp9 mutant DHFR [6] = target: T2, Sp9 mutant DHFR (Streptococcus pneumoniae serotype 4, UniProt Q54801, A149T/E133A/H26Y/I100V/Q81H/Q91S); assay: Equilibrium fluorescence quenching titration, Sp9; type: binding; conditions: read-out: Kd (NADPH), pH 7.0, MTEN buffer
T2 sequence (Q54801 1-168 H26Y/Q81H/Q91S/I100V/E133A/A149T): T1 sequence (Q54801 1-168 K60Q/V77A/A78V/I100L) with H26Y, Q60K, A77V, V78A, Q81H, Q91S, L100V, E133A, A149T

E. coli DHFR (wt) = conditions: read-out: Kd (NADPH); pH 7.0; cited from earlier work
E. coli DHFR [7] = conditions: cited from earlier work; remark: listed apart in the source
Bacterial DHFRs = conditions: cited from earlier work

Nc1nc(=O)c2c([nH]1)NCC(CNc1ccc(C(=O)N[C@@H](CCC(=O)O)C(=O)O)cc1)=N2 [H2F, 7,8-dihydrofolate]
Km (S. pneumoniae DHFR [1]; read-out: KM (H2F)): 4.4 ± 0.95 µM | Km (E. coli DHFR [2]; read-out: KM (H2F)): 0.7 µM | Km (Sp9 mutant DHFR [3]; read-out: KM (H2F)): < 0.63 µM

NC(=O)C1=CN([C@@H]2O[C@H](COP(=O)(O)OP(=O)(O)OC[C@H]3O[C@@H](n4cnc5c(N)ncnc54)[C@H](OP(=O)(O)O)[C@@H]3O)[C@@H](O)[C@H]2O)C=CC1 [NADPH, nicotinamide adenine dinucleotide phosphate (reduced form)]
Km (S. pneumoniae DHFR [1]; read-out: KM (NADPH)): 15.7 ± 4.6 µM | Kd (S. pneumoniae DHFR [4]): 210 ± 13 nM | koff (NADPH) (S. pneumoniae DHFR [5]): 18.0 ± 3.2 s⁻¹ | kon (NADPH) (S. pneumoniae DHFR [5]): 11.9 ± 1.4 μM ^−1s^−1 | Kd (Sp9 mutant DHFR [6]): 160 ± 58 nM | Kd (E. coli DHFR (wt)): 330 nM | Km (E. coli DHFR [2]; read-out: KM (NADPH)): 4.8 µM | koff (NADPH) (E. coli DHFR [7]): 3.5 ^* s^−1 | kon (NADPH) (E. coli DHFR [7]): 20.0 ^* μM ^−1s^−1 | Km (Sp9 mutant DHFR [3]; read-out: KM (NADPH)): 0.75 ± 0.3 µM

COc1cc(Cc2cnc(N)nc2N)cc(OC)c1OC [Trimethoprim]
TMP binding (Bacterial DHFRs; bacterial DHFRs): 0.08 nM | tighter binding to bacterial DHFRs than human DHFR (Bacterial DHFRs; bacterial versus human DHFR): 2500 fold
